Marks after values point to notes of the source that are not given here.
Key:
Set-up in all cases: species or system Sprague–Dawley rats
Details in all cases: rat, in vivo
[1] = OLINDA/EXM predicted clinical doses: adult male phantom, non-normalised τ, iterative
Procedure: (§1) PET studies were reconstructed using filtered-back projection (FBP) and Mediso’s iterative Tera-Tomo 3D reconstruction algorithm with the following settings: 4 iterations, 6 subsets, full detector model, normal regularization, spike filter on, voxel size 0.4 mm and 400‒600 keV energy window. PET data were corrected for randoms, scatter and attenuation. Time-activity curves for each source organ, whole-body and remainder of the body were plotted. […] Residence times (τ) were determined for each radiotracer in source organs, whole-body and remaining (any activity assigned to the whole-body but not assigned to a source organ). Each preclinical source organ’s τ was determined by calculating the area under its respective time-activity curve (activity normalised to the percentage maximum injected dose as a function of time) using the trapezoid method. […] From each individual animal, eight dosimetry models were constructed from all possible combinations of image reconstruction method (FBP or iterative), τ (non-normalised or normalised to human organ masses), and sex of phantom (male or female).

[2] = OLINDA/EXM predicted clinical doses: adult male phantom, normalised τ, iterative
Procedure: as §1, with “female). Supplementary table 11. Predicted clinical absorbed organ doses and whole-body effective doses of PET radiotracers using normalised adult male source organ residence times from iterative reconstructions.” for “female).”

[3] = Comparison of predicted doses across the eight dosimetry models and radiotracers
Procedure: Time-activity curves for each source organ, whole-body and remainder of the body were plotted. […] Residence times (τ) were determined for each radiotracer in source organs, whole-body and remaining (any activity assigned to the whole-body but not assigned to a source organ). Each preclinical source organ’s τ was determined by calculating the area under its respective time-activity curve (activity normalised to the percentage maximum injected dose as a function of time) using the trapezoid method. […] From each individual animal, eight dosimetry models were constructed from all possible combinations of image reconstruction method (FBP or iterative), τ (non-normalised or normalised to human organ masses), and sex of phantom (male or female). All graphs and statistical analyses were generated and performed in GraphPad Prism 5.01 (GraphPad Software Inc., California, USA). One-way ANOVA followed by a Dunnett’s multiple comparison post-hoc test with [^18F]FDG as the control was used to determine which novel radiotracers’ biodistribution and dosimetry differed from [^18F]FDG in the same organs. All statistical tests used α = 0.05 as the measure for statistical significance. Bland–Altman plots were calculated as previously described[33],[34].

[4] = OLINDA/EXM predicted clinical doses: adult female phantom, normalised τ, FBP
Procedure: as §1, with “female). Supplementary table 8. Predicted clinical absorbed organ doses and whole-body effective doses of PET radiotracers using normalised adult female source organ residence times from filtered backprojection reconstructions.” for “female).”

For O=C[C@H]([18F])[C@@H](O)[C@H](O)[C@H](O)CO [FDG, 2-deoxy-2-[^18F]fluoro-D-glucose], the “Effective Dose (mSv/MBq), Average ± SD” value [1] was 6.24E-02 mSv/MBq, the “Estimated Absorbed Dose of Organ, Average ± SD: Adrenals” value [1] was 9.39E-03 mGy/MBq and the “Estimated Absorbed Dose of Organ, Average ± SD: Brain” value [1] was 5.73E-03 mGy/MBq. The “Estimated Absorbed Dose of Organ, Average ± SD: Breasts” value [1] was 5.93E-03 mGy/MBq, the “Estimated Absorbed Dose of Organ, Average ± SD: Gallbladder Wall” value [1] was 1.04E-02 mGy/MBq and the “Estimated Absorbed Dose of Organ, Average ± SD: Heart Wall” value [1] was 2.60E-02 mGy/MBq. The “Estimated Absorbed Dose of Organ, Average ± SD: Kidneys” value [1] was 3.58E-02 § mGy/MBq, the “Estimated Absorbed Dose of Organ, Average ± SD: LLI Wall” value [1] was 1.92E-01 ‡ mGy/MBq and the “Estimated Absorbed Dose of Organ, Average ± SD: Liver” value [1] was 9.19E-03 mGy/MBq. The “Estimated Absorbed Dose of Organ, Average ± SD: Lungs” value [1] was 6.86E-03 mGy/MBq, the “Estimated Absorbed Dose of Organ, Average ± SD: Muscle” value [1] was 1.15E-02 mGy/MBq and the “Estimated Absorbed Dose of Organ, Average ± SD: Osteogenic Cells” value [1] was 1.26E-02 mGy/MBq. For the same molecule, the “Estimated Absorbed Dose of Organ, Average ± SD: Pancreas” value [1] was 9.88E-03 mGy/MBq, the “Estimated Absorbed Dose of Organ, Average ± SD: Red Marrow” value [1] was 1.08E-02 mGy/MBq and the “Estimated Absorbed Dose of Organ, Average ± SD: Skin” value [1] was 6.97E-03 mGy/MBq. For the same molecule, the “Estimated Absorbed Dose of Organ, Average ± SD: Small Intestine” value [1] was 1.91E-02 mGy/MBq, the “Estimated Absorbed Dose of Organ, Average ± SD: Spleen” value [1] was 9.14E-03 mGy/MBq and the “Estimated Absorbed Dose of Organ, Average ± SD: Stomach Wall” value [1] was 9.73E-03 mGy/MBq. For the same molecule, the “Estimated Absorbed Dose of Organ, Average ± SD: Testes” value [1] was 1.82E-02 mGy/MBq, the “Estimated Absorbed Dose of Organ, Average ± SD: Thymus” value [1] was 7.56E-03 mGy/MBq and the “Estimated Absorbed Dose of Organ, Average ± SD: Thyroid” value [1] was 6.91E-03 mGy/MBq. For the same molecule, the “Estimated Absorbed Dose of Organ, Average ± SD: Total Body” value [1] was 1.19E-02 mGy/MBq, the “Estimated Absorbed Dose of Organ, Average ± SD: ULI Wall” value [1] was 1.49E-02 mGy/MBq and the “Estimated Absorbed Dose of Organ, Average ± SD: Urinary Bladder Wall” value [1] was 5.53E-01 † mGy/MBq. The “Effective Dose” value [2] was 2.46E-02 mSv/MBq, the “Estimated Absorbed Dose of Organ, Adrenals” value [2] was 9.55E-03 mGy/MBq and the “Estimated Absorbed Dose of Organ, Brain” value [2] was 1.47E-02 mGy/MBq. The “Estimated Absorbed Dose of Organ, Breasts” value [2] was 6.86E-03 mGy/MBq, the “Estimated Absorbed Dose of Organ, Gallbladder Wall” value [2] was 9.38E-03 mGy/MBq and the “Estimated Absorbed Dose of Organ, Heart Wall” value [2] was 8.18E-02 ‡ mGy/MBq. For the same molecule, the “Estimated Absorbed Dose of Organ, Kidneys” value [2] was 2.30E-02 mGy/MBq, the “Estimated Absorbed Dose of Organ, LLI Wall” value [2] was 7.18E-02 § mGy/MBq and the “Estimated Absorbed Dose of Organ, Liver” value [2] was 9.11E-03 mGy/MBq. For the same molecule, the “Estimated Absorbed Dose of Organ, Lungs” value [2] was 1.46E-02 mGy/MBq, the “Estimated Absorbed Dose of Organ, Muscle” value [2] was 8.37E-03 mGy/MBq and the “Estimated Absorbed Dose of Organ, Osteogenic Cells” value [2] was 1.16E-02 mGy/MBq. For the same molecule, the “Estimated Absorbed Dose of Organ, Pancreas” value [2] was 1.00E-02 mGy/MBq, the “Estimated Absorbed Dose of Organ, Red Marrow” value [2] was 8.31E-03 mGy/MBq and the “Estimated Absorbed Dose of Organ, Skin” value [2] was 5.99E-03 mGy/MBq. The “Estimated Absorbed Dose of Organ, Small Intestine” value [2] was 1.15E-02 mGy/MBq, the “Estimated Absorbed Dose of Organ, Spleen” value [2] was 8.72E-03 mGy/MBq and the “Estimated Absorbed Dose of Organ, Stomach Wall” value [2] was 9.21E-03 mGy/MBq. For the same molecule, the “Estimated Absorbed Dose of Organ, Testes” value [2] was 9.57E-03 mGy/MBq, the “Estimated Absorbed Dose of Organ, Thymus” value [2] was 9.60E-03 mGy/MBq and the “Estimated Absorbed Dose of Organ, Thyroid” value [2] was 7.39E-03 mGy/MBq. The “Estimated Absorbed Dose of Organ, ULI Wall” value [2] was 1.01E-02 mGy/MBq, the “Estimated Absorbed Dose of Organ, Urinary Bladder Wall” value [2] was 1.43E-01 † mGy/MBq and the “Estimated Absorbed Dose, Total Body” value [2] was 9.30E-03 mGy/MBq. The “organs predicted to receive the highest absorbed doses (ranking)” value [3] was “the urinary bladder, followed by the lower large intestinal (LLI) wall and kidneys”, the “Effective Dose (mSv/MBq), Average ± SD” value [4] was 3.21E-02 mSv/MBq and the “Estimated Absorbed Dose of Organ, Average: Adrenals” value [4] was 1.55E-02 mGy/MBq. The “Estimated Absorbed Dose of Organ, Average: Brain” value [4] was 1.10E-02 mGy/MBq, the “Estimated Absorbed Dose of Organ, Average: Breasts” value [4] was 1.16E-02 mGy/MBq and the “Estimated Absorbed Dose of Organ, Average: Gallbladder Wall” value [4] was 1.48E-02 mGy/MBq. The “Estimated Absorbed Dose of Organ, Average: Heart Wall” value [4] was 4.52E-02 mGy/MBq, the “Estimated Absorbed Dose of Organ, Average: Kidneys” value [4] was 1.70E-02 § mGy/MBq and the “Estimated Absorbed Dose of Organ, Average: LLI Wall” value [4] was 1.07E-01 † mGy/MBq. For the same molecule, the “Estimated Absorbed Dose of Organ, Average: Liver” value [4] was 1.01E-02 mGy/MBq, the “Estimated Absorbed Dose of Organ, Average: Lungs” value [4] was 1.82E-02 mGy/MBq and the “Estimated Absorbed Dose of Organ, Average: Muscle” value [4] was 1.40E-02 mGy/MBq. For the same molecule, the “Estimated Absorbed Dose of Organ, Average: Osteogenic Cells” value [4] was 2.19E-02 mGy/MBq, the “Estimated Absorbed Dose of Organ, Average: Ovaries” value [4] was 2.42E-02 mGy/MBq and the “Estimated Absorbed Dose of Organ, Average: Pancreas” value [4] was 1.63E-02 mGy/MBq. The “Estimated Absorbed Dose of Organ, Average: Red Marrow” value [4] was 1.37E-02 mGy/MBq, the “Estimated Absorbed Dose of Organ, Average: Skin” value [4] was 1.06E-02 mGy/MBq and the “Estimated Absorbed Dose of Organ, Average: Small Intestine” value [4] was 1.83E-02 mGy/MBq. For the same molecule, the “Estimated Absorbed Dose of Organ, Average: Spleen” value [4] was 1.51E-02 mGy/MBq, the “Estimated Absorbed Dose of Organ, Average: Stomach Wall” value [4] was 1.57E-02 mGy/MBq and the “Estimated Absorbed Dose of Organ, Average: Thymus” value [4] was 1.48E-02 mGy/MBq. For the same molecule, the “Estimated Absorbed Dose of Organ, Average: Thyroid” value [4] was 1.27E-02 mGy/MBq, the “Estimated Absorbed Dose of Organ, Average: Total Body” value [4] was 1.46E-02 mGy/MBq and the “Estimated Absorbed Dose of Organ, Average: ULI Wall” value [4] was 1.75E-02 mGy/MBq. The “Estimated Absorbed Dose of Organ, Average: Urinary Bladder Wall” value [4] was 1.18E-01 ‡ mGy/MBq and the “Estimated Absorbed Dose of Organ, Average: Uterus” value [4] was 2.28E-02 mGy/MBq.

Source: PMC7525662, “Preclinical dosimetry models and the prediction of clinical doses of novel positron emission tomography radiotracers” (Scientific Reports, 2020)
